Measured values as given in BindingDB's records for PubMed 20126400 (University of Oklahoma, 2010).

Legend:
Experiment in all cases: Ray2010 Assay 74
[1] = molecular target: Voltage-dependent calcium channel subunit alpha-2/delta-1 (Homo sapiens, UniProt P54289)
Source text: (§1) Table S2 shows raw Ki data for the current study combined with data collected from the literature for the ten additional compounds.

[2] = molecular target: T1, Gamma-aminobutyric acid receptor subunit alpha-1/Adenosine receptor A1 (Homo sapiens, UniProt P14867+P30542)
T1 sequence (P30542 whole entry): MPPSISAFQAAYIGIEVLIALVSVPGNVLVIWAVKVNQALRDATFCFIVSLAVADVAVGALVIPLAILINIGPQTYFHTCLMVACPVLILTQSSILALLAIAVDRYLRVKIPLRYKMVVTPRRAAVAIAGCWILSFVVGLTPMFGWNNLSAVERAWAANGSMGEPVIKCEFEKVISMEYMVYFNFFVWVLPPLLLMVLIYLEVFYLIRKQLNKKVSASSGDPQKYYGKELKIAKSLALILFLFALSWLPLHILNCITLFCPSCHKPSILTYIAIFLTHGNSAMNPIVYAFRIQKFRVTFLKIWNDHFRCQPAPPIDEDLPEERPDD
T1 sequence (P14867 whole entry): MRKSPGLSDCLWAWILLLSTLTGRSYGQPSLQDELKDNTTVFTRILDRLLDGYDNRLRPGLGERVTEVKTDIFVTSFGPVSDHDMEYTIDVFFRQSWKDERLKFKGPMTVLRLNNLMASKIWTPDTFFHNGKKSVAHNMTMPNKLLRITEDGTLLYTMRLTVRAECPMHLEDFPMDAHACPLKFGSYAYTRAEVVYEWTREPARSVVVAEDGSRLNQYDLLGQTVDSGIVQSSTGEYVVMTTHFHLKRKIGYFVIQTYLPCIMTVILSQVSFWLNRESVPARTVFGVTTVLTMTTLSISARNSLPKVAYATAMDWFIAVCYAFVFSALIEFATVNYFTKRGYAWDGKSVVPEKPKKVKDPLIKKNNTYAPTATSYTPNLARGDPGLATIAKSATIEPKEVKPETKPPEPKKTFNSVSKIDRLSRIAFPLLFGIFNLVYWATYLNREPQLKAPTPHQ
Source text: as §1

[3] = molecular target: Sigma non-opioid intracellular receptor 1 (Homo sapiens, UniProt Q99720)
Sigma non-opioid intracellular receptor 1, sequence (Q99720 whole entry): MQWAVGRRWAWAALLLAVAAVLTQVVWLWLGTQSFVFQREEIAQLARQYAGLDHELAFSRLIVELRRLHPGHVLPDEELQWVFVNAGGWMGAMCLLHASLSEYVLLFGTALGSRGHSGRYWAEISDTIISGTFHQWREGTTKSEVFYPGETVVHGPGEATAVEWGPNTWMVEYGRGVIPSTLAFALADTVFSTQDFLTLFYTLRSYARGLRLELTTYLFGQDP
Source text: as §1

Nischarin = Nischarin (Homo sapiens, UniProt Q9Y2I1)
Nischarin, sequence (Q9Y2I1 whole entry): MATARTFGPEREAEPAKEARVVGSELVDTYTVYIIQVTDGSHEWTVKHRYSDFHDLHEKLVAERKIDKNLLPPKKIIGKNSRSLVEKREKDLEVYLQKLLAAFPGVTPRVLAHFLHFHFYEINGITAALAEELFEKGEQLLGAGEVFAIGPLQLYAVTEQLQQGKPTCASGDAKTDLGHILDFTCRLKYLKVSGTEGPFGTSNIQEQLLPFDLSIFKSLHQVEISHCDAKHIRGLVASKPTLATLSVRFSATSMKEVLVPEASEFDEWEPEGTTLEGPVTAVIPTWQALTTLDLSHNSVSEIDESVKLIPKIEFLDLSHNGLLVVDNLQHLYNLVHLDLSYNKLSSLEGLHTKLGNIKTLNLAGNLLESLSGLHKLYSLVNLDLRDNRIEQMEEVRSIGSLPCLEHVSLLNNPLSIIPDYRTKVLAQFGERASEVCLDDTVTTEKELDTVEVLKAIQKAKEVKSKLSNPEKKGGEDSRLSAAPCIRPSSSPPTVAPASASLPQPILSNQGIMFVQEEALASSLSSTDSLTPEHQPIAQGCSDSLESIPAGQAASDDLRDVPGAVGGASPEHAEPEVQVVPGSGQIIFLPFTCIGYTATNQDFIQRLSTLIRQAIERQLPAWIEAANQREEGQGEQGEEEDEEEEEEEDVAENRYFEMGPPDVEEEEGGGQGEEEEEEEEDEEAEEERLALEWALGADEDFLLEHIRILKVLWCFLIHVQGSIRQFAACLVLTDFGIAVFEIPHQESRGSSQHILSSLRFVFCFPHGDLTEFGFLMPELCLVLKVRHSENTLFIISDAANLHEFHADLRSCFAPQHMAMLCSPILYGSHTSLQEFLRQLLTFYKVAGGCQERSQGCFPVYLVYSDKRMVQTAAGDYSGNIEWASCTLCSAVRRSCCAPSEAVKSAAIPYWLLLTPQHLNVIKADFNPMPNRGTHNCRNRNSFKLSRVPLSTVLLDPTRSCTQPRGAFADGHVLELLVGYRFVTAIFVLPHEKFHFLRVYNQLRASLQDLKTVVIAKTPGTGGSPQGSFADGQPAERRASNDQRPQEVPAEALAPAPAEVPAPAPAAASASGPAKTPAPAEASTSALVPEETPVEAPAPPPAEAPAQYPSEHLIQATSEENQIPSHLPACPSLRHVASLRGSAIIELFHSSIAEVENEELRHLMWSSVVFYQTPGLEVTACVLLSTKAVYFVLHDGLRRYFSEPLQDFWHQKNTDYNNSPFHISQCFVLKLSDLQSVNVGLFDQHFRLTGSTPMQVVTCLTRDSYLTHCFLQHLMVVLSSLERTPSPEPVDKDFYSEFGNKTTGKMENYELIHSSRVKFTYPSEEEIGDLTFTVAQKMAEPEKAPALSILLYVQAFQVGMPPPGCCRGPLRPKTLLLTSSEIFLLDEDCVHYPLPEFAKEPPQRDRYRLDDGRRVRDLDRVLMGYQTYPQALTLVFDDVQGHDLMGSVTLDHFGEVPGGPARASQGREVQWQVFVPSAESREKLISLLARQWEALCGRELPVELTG
Source text: as §1

[4] = molecular target: Beta-2 adrenergic receptor (Homo sapiens, UniProt P07550)
Beta-2 adrenergic receptor, sequence (P07550 whole entry): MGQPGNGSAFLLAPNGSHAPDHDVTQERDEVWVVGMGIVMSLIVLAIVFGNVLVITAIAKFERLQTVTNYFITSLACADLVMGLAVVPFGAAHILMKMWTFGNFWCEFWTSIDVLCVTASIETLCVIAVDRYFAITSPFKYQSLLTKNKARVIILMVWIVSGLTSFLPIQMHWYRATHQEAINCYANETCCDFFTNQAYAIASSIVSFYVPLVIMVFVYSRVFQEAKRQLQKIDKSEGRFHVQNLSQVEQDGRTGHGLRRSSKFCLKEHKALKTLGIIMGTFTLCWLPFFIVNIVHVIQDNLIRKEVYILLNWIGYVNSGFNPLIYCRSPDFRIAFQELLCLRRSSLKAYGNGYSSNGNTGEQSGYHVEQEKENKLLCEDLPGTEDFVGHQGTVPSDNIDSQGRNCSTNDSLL
Source text: as §1

[5] = molecular target: T2, Alpha-2C adrenergic receptor (Homo sapiens, UniProt P18825)
T2 sequence (P18825 whole entry): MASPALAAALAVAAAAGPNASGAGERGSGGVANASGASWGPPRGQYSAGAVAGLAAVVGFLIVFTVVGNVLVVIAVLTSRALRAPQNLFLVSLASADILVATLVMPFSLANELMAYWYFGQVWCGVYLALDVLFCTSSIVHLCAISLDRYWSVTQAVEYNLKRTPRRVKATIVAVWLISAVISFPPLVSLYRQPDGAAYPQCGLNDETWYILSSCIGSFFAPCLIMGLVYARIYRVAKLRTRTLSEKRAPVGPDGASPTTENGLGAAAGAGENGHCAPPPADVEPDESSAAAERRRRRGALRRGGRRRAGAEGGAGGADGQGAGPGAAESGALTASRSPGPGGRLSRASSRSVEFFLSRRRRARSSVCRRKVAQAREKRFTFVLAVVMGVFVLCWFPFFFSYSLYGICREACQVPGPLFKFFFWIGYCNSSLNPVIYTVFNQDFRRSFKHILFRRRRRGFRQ
Source text: as §1

D(4) dopamine receptor = molecular target: T3, D(4) dopamine receptor (Homo sapiens, UniProt P21917)
T3 sequence (P21917 whole entry): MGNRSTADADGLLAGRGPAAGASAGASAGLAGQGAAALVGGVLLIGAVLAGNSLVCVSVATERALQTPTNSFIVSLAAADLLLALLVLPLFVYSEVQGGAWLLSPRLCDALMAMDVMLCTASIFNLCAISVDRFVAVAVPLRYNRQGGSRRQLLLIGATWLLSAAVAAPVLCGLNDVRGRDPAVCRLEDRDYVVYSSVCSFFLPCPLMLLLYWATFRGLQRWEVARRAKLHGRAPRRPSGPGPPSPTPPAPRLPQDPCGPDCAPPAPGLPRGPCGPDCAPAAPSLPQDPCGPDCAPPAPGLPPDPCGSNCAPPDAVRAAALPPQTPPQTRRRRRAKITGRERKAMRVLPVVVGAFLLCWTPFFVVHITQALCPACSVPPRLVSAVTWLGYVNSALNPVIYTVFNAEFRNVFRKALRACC
Source text: as §1

[6] = molecular target: Sigma intracellular receptor 2 (Homo sapiens, UniProt Q5BJF2)
Sigma intracellular receptor 2, sequence (Q5BJF2 whole entry): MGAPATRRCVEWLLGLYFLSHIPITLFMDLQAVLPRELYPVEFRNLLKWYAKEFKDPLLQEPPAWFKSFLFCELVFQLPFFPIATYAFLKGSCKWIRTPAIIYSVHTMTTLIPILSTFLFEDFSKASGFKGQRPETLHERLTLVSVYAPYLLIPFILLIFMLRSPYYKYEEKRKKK
Source text: as §1

[7] = molecular target: Muscarinic acetylcholine receptor M3 (Homo sapiens, UniProt P20309)
Muscarinic acetylcholine receptor M3, sequence (P20309 whole entry): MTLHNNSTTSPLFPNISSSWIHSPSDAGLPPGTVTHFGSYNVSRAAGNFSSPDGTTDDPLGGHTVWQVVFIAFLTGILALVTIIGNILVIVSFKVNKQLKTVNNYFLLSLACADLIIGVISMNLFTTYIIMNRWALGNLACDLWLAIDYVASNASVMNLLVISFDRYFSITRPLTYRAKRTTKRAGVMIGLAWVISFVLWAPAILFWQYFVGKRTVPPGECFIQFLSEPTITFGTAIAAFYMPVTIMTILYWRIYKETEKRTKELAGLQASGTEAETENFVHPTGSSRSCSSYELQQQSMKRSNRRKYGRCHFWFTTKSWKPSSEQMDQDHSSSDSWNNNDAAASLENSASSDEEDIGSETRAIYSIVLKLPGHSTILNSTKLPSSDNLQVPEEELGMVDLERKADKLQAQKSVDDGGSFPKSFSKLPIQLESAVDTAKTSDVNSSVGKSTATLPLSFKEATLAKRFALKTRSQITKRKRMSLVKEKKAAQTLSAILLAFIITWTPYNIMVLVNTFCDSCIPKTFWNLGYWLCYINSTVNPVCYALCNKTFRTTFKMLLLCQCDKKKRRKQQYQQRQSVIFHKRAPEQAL
Source text: as §1

[8] = molecular target: 5-hydroxytryptamine receptor 7 (Homo sapiens, UniProt P34969)
5-hydroxytryptamine receptor 7, sequence (P34969 whole entry): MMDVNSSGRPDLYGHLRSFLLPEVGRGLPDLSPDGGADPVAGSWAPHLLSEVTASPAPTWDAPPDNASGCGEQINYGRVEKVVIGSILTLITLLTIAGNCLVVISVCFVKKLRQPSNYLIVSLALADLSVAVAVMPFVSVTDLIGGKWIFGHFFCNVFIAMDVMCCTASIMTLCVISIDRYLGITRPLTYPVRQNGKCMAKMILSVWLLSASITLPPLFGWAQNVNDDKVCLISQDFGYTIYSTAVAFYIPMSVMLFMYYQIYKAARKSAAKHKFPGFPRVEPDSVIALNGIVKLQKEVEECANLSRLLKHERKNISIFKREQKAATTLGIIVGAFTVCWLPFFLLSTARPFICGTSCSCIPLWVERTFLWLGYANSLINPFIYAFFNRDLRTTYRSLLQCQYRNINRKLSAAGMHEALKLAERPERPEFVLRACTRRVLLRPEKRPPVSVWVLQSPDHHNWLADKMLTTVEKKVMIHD
Source text: as §1

Vasopressin V1b receptor = molecular target: T4, Vasopressin V1b receptor (Homo sapiens, UniProt P47901)
T4 sequence (P47901 whole entry): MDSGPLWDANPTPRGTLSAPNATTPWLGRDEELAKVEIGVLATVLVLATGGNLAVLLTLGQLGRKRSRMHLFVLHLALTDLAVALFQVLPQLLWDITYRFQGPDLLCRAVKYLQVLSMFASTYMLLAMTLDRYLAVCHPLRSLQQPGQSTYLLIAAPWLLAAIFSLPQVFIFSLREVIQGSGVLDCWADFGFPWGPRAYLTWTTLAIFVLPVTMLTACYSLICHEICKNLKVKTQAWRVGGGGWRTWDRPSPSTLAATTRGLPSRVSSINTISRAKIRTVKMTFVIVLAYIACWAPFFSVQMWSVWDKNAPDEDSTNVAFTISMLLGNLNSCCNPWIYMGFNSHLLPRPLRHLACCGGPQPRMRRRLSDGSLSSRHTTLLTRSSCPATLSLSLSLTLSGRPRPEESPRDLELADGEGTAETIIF
Source text: as §1

Histamine H1 receptor = Histamine H1 receptor (Homo sapiens, UniProt P35367)
Histamine H1 receptor, sequence (P35367 whole entry): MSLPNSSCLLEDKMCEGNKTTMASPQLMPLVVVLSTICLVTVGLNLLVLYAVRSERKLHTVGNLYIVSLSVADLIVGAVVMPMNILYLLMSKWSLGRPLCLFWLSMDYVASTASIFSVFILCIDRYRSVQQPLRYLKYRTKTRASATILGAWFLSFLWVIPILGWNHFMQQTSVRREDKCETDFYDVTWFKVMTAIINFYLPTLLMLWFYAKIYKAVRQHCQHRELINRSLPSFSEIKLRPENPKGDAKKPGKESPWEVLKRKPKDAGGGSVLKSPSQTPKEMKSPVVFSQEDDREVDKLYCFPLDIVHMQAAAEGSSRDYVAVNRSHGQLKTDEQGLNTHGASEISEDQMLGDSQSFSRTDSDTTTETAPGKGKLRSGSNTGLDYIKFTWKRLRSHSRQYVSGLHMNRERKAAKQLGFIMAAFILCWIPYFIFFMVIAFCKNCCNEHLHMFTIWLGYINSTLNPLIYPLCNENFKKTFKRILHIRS
Source text: as §1

Histamine H3 receptor = Histamine H3 receptor (Homo sapiens, UniProt Q9Y5N1)
Histamine H3 receptor, sequence (Q9Y5N1 whole entry): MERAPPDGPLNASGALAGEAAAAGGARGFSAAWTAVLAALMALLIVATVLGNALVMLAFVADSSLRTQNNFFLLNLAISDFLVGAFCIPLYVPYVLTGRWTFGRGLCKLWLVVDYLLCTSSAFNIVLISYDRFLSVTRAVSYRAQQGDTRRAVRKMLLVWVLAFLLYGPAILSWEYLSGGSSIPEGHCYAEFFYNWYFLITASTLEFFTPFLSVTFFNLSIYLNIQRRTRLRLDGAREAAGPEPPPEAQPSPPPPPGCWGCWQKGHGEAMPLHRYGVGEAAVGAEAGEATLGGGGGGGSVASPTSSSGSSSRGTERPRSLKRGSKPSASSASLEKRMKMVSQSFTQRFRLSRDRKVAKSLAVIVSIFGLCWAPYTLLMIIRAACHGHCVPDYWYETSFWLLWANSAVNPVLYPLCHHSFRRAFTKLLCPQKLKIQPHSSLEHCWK
Source text: as §1

Vasopressin V1a receptor = Vasopressin V1a receptor (Homo sapiens, UniProt P37288)
Vasopressin V1a receptor, sequence (P37288 whole entry): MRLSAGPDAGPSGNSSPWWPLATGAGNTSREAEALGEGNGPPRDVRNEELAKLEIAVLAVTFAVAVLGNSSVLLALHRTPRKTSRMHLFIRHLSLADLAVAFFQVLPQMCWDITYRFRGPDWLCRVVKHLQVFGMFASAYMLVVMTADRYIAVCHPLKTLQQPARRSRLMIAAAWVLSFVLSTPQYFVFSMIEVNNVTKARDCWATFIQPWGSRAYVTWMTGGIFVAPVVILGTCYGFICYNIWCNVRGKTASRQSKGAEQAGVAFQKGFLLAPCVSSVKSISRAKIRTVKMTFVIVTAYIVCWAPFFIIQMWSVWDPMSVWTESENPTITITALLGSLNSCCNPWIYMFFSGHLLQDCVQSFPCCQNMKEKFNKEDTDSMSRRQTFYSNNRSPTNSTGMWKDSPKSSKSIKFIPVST
Source text: as §1

Row | Compound | Ki [1] [µM] | Ki [2] [µM] | Ki [3] [µM] | Ki (Nischarin) [µM] | Ki [4] [µM] | Ki [5] [µM] | Ki (D(4) dopamine receptor) [µM] | Ki [6] [µM] | Ki [7] [µM] | Ki [8] [µM] | Ki (Vasopressin V1b receptor) [µM] | Ki (Histamine H1 receptor) [µM] | Ki (Histamine H3 receptor) [µM] | Ki (Vasopressin V1a receptor) [µM]
1 | COc1ccc2[nH]cc(CCN(C)C)c2c1 [3-(2-DIMETHYLAMINOETHYL)-5-METHOXYINDOLE] | > 10 | > 10 | > 10 | 2.5 | > 10 | 0.508 | 3.12 | > 10 | > 10 |  |  |  |  | 
2 | CNC(C)Cc1ccc2c(c1)OCO2 (centres undefined) [mdma] | 1.2 | > 10 |  | 0.22 | > 10 | 1.35 | > 10 |  |  | > 10 | > 10 | > 10 |  | 
3 | CCOc1cc(OC)c(CC(C)N)cc1OC (centres undefined) | > 10 | > 10 | 5.08 | > 10 | > 10 | > 10 | > 10 | > 10 | > 10 | 7.16 | > 10 | > 10 | > 10 | > 10
4 | COc1ccc2[nH]cc(CCN(C(C)C)C(C)C)c2c1 [5-meo-dipt] | > 10 | > 10 | 9.44 | 0.76 | > 10 | 2.86 | > 10 | 3 | > 10 | 1.23 | > 10 | > 10 | > 10 | > 10
5 | CN(C)CCc1c[nH]c2cccc(O)c12 [4-hydroxy-N,N-dimethyltryptamine] | > 10 | > 10 | > 10 | 0.792 | > 10 |  | > 10 | > 10 | > 10 |  |  | > 10 | > 10 | 
6 | COc1cc(CCN)cc(OC)c1OC [3,4,5-trimethoxyphenylethylamine] | > 10 | > 10 | > 10 | 2.68 | > 10 | 0.745 | > 10 | > 10 | > 10 | > 10 | > 10 | > 10 | > 10 | > 10
7 | CN(C)CCc1c[nH]c2ccccc12 [2-(1H-indol-3-yl)-N,N-dimethylethanamine] | > 10 | > 10 | 5.21 | 0.65 | > 10 |  | > 10 | > 10 | > 10 | 0.0875 |  |  | > 10 | 
8 | CN(C)CCc1c[nH]c2cc(F)ccc12 [6-f-dmt] | > 10 | > 10 | 6.89 | 0.898 | > 10 | 0.149 | 1.45 | 7.13 | > 10 | 0.0408 | > 10 | 0.0466 | > 10 | > 10
9 | COc1ccc2[nH]cc(CCN(C)C(C)C)c2c1 [5-meo-mipt] | > 10 | > 10 | > 10 | 0.879 | > 10 | 0.637 | 6.33 | 0.918 | > 10 | 0.0198 | > 10 | 4.82 | > 10 | > 10
10 | CCCN(CCC)CCc1c[nH]c2ccccc12 [dpt] | > 10 | > 10 | 0.397 |  | > 10 | 0.514 | 2.01 | 2.92 | > 10 | 0.284 | > 10 | 0.125 | > 10 | > 10
11 | CC(C)N(CCc1c[nH]c2ccccc12)C(C)C [dipt] | > 10 | > 10 | 1.8 | 0.356 | > 10 | 2.52 | > 10 | 2.7 | > 10 | 3.42 | > 10 | 3.58 |  | > 10
